# Patent US9185897B2, “Methods to deliver and maintain volatile compounds” (AUBURN UNIVERSITY, priority 2010, dated 2015)
# Experiment: Release rate of a volatile compound from a model manually replenished system (mass loss of vials through a mass-regulating barrier)
# Assay type: physicochemical
# Settings: low-density polyethylene barrier, 0.004 inch-thick; air about 1.4 m/s; substantially constant over 133 days in the laboratory (FIG. 5)
# Protocol: Experimental release rates of a volatile compound from a model manually replenished system were measured as a function of time. Glass screw-thread sample vials with PTFE/silicone septa and open-top polypropylene caps contained the volatile liquid compound. Two different sizes of vials were employed: small 8 mL capacity (17 mm O.D. and 63 mm height) and large 40 mL capacity (28 mm O.D. and 98 mm height). The test volatile compound selected for study was dimethyldisulfide (DMDS). Duplicate samples of 5.5 mL and 30 mL of DMDS were added to the small and large vials, respectively. Then a mass-regulating barrier was placed on the top of each vial, and the open-top cap was tightly screwed to seal the vial contents. The diameters of the mass-regulating barriers for the small and large vials were 13.4 and 22.0 mm, respectively. In addition, the diameters of the openings in the caps for the small and large vials were 8.78 mm and 14.62 mm, respectively. Each vial with barrier, cap and liquid contents was then immediately weighed on an analytical balance. Next, the vials were placed in a dedicated laboratory fume hood. Ambient air with a bulk velocity of about 1.4 m/s (or 3 mph) passed over the vials. […] From these primary measurements the release rate for each […] was determined as a function of time. […]
smiles,measurement,value
"CSSC [DMDS, dimethyldisulfide]",release rate,26 mg/day
